# Experimental data published in patent US9708336B2, “Metallo-beta-lactamase inhibitors” (priority 2014, dated 2017).
# Read-outs that look alike come from different tables or passages of the source.
# Legend:
# [1] = test system: Serratia marcescens expressing IMP-1 (CL5741); experiment: Antibiotic potentiation activity: synergistic concentration (MITC95) with imipenem, OD600 growth; assay type: cell-based; settings: for Serratia marcescens expressing IMP-1 (CL5741) MITC95: concentration giving 95% inhibition of bacterial growth
# Summary of the method: (§1)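 Test compound was combined with 4 μg/ml imipenem (or optionally 1 μg/ml), or with no antibiotic, against saline-suspended colonies diluted 1:100 in 1.1×CAMHB. Strains were E. coli NDM-1, S. marcescens IMP-1 and K. pneumoniae VIM-1. Plates were incubated 22–24 h at 35 °C before absorbance (OD600) readout.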
# [2] = test system: Escherichia coli expressing NDM-1 (CLB30016); experiment: as above; assay type: cell-based; settings: for Escherichia coli expressing NDM-1 (CLB 30016) MITC95: concentration giving 95% inhibition of bacterial growth
# Summary of the method: as §1
# [3] = test system: Klebsiella pneumoniae expressing VIM-1 (IHMA599644); experiment: as above; assay type: cell-based; settings: for Klebsiella pneumoniae expressing VIM-1 (IHMA 599644) MITC95: concentration giving 95% inhibition of bacterial growth
# Summary of the method: as §1
# NDM-1 = NDM-1 (Klebsiella pneumoniae, UniProt C7C422); experiment: biochemical; assay type: biochemical; settings: read-out: NDM-1 IC50
# Chain of NDM-1 (C7C422 whole entry, looked up, species assumed): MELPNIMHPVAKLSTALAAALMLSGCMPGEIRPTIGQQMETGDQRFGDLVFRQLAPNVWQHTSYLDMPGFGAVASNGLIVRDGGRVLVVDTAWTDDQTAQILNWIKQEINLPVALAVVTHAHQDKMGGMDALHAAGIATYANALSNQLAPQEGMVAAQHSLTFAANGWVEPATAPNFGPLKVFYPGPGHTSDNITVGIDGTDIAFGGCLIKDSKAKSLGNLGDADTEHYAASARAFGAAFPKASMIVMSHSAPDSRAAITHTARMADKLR
# VIM-1 = VIM-1 (Pseudomonas aeruginosa (strain ATCC 15692 / DSM 22644 / CIP 104116 / JCM 14847 / LMG 12228 / 1C / PRS 101 / PAO1), UniProt A0A0F7KYQ8); experiment: Enzyme activity: determination of IC50, fluorescence assay with CCF2-FA substrate (VIM-1); assay type: biochemical
# IMP-1 = IMP-1 (Serratia marcescens, UniProt P52699); experiment: biochemical; assay type: biochemical; settings: read-out: IMP-1 IC50
# Chain of IMP-1 (P52699 whole entry, looked up): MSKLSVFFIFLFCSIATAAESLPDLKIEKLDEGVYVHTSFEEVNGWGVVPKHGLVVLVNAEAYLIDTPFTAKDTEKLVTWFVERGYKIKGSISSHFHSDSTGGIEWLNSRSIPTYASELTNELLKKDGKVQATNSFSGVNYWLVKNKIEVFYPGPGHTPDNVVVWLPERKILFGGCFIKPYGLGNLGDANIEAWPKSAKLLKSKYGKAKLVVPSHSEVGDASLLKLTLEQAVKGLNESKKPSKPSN
# [4] = Serratia marcescens expressing IMP-1 (CL5741), 95% growth inhibition
# [5] = Escherichia coli expressing NDM-1 (CLB30016), 95% growth inhibition
# [6] = Klebsiella pneumoniae expressing VIM-1 (IHMA599644), 95% growth inhibition
# [7] = NDM-1 enzyme, CCF2-FA fluorescence assay
# [8] = VIM-1 IC50, VIM-1 enzyme, CCF2-FA fluorescence assay
# [9] = IMP-1 enzyme, CCF2-FA fluorescence assay
# [10] = VIM-1 enzyme, CCF2-FA fluorescence assay, read-out: VIM-1 IC50
# [11] = CL5741 (IMP-1), 95% inhibition of bacterial growth
# [12] = CLB30016 (NDM-1), 95% inhibition of bacterial growth
# [13] = IHMA599644 (VIM-1), 95% inhibition of bacterial growth
# [14] = fluorescence assay with CCF2-FA substrate
# [15] = fluorescence assay with CCF2-FA substrate, read-out: VIM-1 IC50
# [16] = Serratia marcescens CL5741 (IMP-1), 95% growth inhibition
# [17] = (CLB30016, NDM-1), 95% growth inhibition
# [18] = Klebsiella pneumoniae IHMA599644 (VIM-1), 95% growth inhibition
# [19] = NDM-1 enzyme, CCF2-FA substrate
# [20] = VIM-1 enzyme, CCF2-FA substrate, read-out: VIM-1 IC50
# [21] = IMP-1 enzyme, CCF2-FA substrate
# [22] = VIM-1 IC50, VIM-1 enzyme, CCF2-FA substrate
Compound,"Serratia marcescens MITC95 [1, 4] [µM]","Escherichia coli MITC95 [2, 5] [µM]","Klebsiella pneumoniae MITC95 [3, 6] [µM]",IC50 (NDM-1; [7]) [nM],IC50 (IMP-1; [9]) [nM],"Serratia marcescens MITC95 [1, 16] [µM]","Escherichia coli MITC95 [2, 17] [µM]","Klebsiella pneumoniae MITC95 [3, 18] [µM]",IC50 (NDM-1; [19]) [nM],IC50 (IMP-1; [21]) [nM],further results
"NC(=O)CCc1ccc(-c2ccc(C(F)(F)F)c(S(N)(=O)=O)c2-c2nn[nH]n2)cc1 [Example 449, 3-(3′-sulfamoyl-2′-(2H-tetrazol-5-yl)-4′-(trifluoromethyl)-[1,1′-biphenyl]-4-yl)propanamide]",0.1953,0.7813,6.25,0.653,0.537,–,–,–,–,–,IC50 (VIM-1; [8]): 0.815 nM
"NS(=O)(=O)c1cccc(-c2ccc(CNCc3ccncn3)cc2)c1-c1nnn[nH]1 [Example 377, 4′-{[(pyrimidin-4-ylmethyl)amino]methyl}-2-(1H-tetrazol-5-yl)biphenyl-3-sulfonamide]",3.125,1.563,200,5.27,73.7,–,–,–,–,–,IC50 (VIM-1; [8]): 256 nM
"NS(=O)(=O)c1c(CC(F)(F)F)ccc(-c2ccc(C3CCNCC3)cc2)c1-c1nn[nH]n1 [Example 458, 4′-(piperidin-4-yl)-2-(2H-tetrazol-5-yl)-4-(2,2,2-trifluoroethyl)-[1,1′-biphenyl]-3-sulfonamide]",0.125,3.125,3.125,22.1,2.39,–,–,–,–,–,IC50 (VIM-1; [10]): 2.12 nM
"NS(=O)(=O)c1c(C(F)(F)F)ccc(-c2ccnc3ccccc23)c1-c1nn[nH]n1 [Example 273, 3-(quinolin-4-yl)-2-(2H-tetrazol-5-yl)-6-(trifluoromethyl)benzenesulfonamide]",0.3906,4.688,6.25,0.581,3.21,–,–,–,–,–,IC50 (VIM-1; [10]): 0.165 nM
"NS(=O)(=O)c1c(C(F)(F)F)ccc(N2CCC3(CCCNC3)CC2)c1-c1nnn[nH]1 [Example 776, 3-(2,9-diazaspiro[5.5]undec-9-yl)-2-(1H-tetrazol-5-yl)-6-(trifluoromethyl) benzenesulfonamide]",–,–,–,–,–,–,–,–,–,–,"Serratia marcescens MITC95 [1, 11]: 50 µM; Escherichia coli MITC95 [2, 12]: 25 µM; Klebsiella pneumoniae MITC95 [3, 13]: 25 µM; IC50 (NDM-1; [14]): 15.2 nM; IC50 (VIM-1; [15]): 15.9 nM; IC50 (IMP-1; [14]): 55.9 nM"
"NC1CCC(c2cccc(S(N)(=O)=O)c2-c2nn[nH]n2)CC1 (stereo not drawn) [Example 168, 3-(4-Aminocyclohexyl)-2-(2H-tetrazol-5-yl)benzenesulfonamide]",–,–,–,–,–,–,–,–,–,–,Serratia marcescens expressing IMP-1 (CL5741) MITC95 [1]: 6.25 µM; Escherichia coli expressing NDM-1 (CLB 30016) MITC95 [2]: 0.25 µM; Klebsiella pneumoniae expressing VIM-1 (IHMA 599644) MITC95 [3]: 2.172 µM; IC50 (NDM-1; [14]): 39.4 nM; IC50 (VIM-1; [15]): 50.3 nM; IC50 (IMP-1; [14]): 865 nM
"NS(=O)(=O)c1cccc(-c2ccc3nccnc3c2)c1-c1nnn[nH]1 [Example 405, 3-quinoxalin-6-yl-2-(1H-tetrazol-5-yl)benzenesulfonamide]",1.563,1.563,62.5,4.23,67.6,–,–,–,–,–,IC50 (VIM-1; [10]): 16.9 nM
"Nc1ccnc2cc(-c3cccc(S(N)(=O)=O)c3-c3nnn[nH]3)ccc12 [Example 412, 3-(4-amino-7-quinolyl)-2-(1H-tetrazol-5-yl)benzenesulfonamide]",25,0.3906,3.125,25.9,1390,–,–,–,–,–,IC50 (VIM-1; [10]): 25.8 nM
"NS(=O)(=O)c1c(C(F)(F)F)ccc(-c2ccc(C3CCN(CC4CCCCN4)CC3)cc2)c1-c1nnn[nH]1 (stereo not drawn) [Example 676, 4′-[1-(piperidin-2-ylmethyl)piperidin-4-yl]-2-(1H-tetrazol-5-yl)-4-(trifluoromethyl)biphenyl-3-sulfonamide]",–,–,–,–,–,6.25,12.5,>200,5.59,1.26,IC50 (VIM-1; [20]): 9.1 nM
"NS(=O)(=O)c1cccc(-c2cnc3cnccn23)c1-c1nnn[nH]1 [Example 651, 3-imidazo[1,2-a]pyrazin-3-yl-2-(1H-tetrazol-5-yl)benzenesulfonamide]",–,–,–,–,–,37.5,1.172,6.25,9.85,900,IC50 (VIM-1; [22]): 40.7 nM
"CNC1CC(N2CCC(c3ccc(-c4ccc(C(F)(F)F)c(S(N)(=O)=O)c4-c4nnn[nH]4)cc3)CC2)C1 (stereo not drawn) [Example 799, 4′-{1-[3-(methylamino)cyclobutyl]piperidin-4-yl}-2-(1H-tetrazol-5-yl)-4-(trifluoromethyl)biphenyl-3-sulfonamide]",–,–,–,–,–,–,–,–,–,–,"Serratia marcescens MITC95 [1, 11]: 3.125 µM; Escherichia coli MITC95 [2, 12]: 3.125 µM; Klebsiella pneumoniae MITC95 [3, 13]: >200 µM; IC50 (NDM-1; [14]): 3.89 nM; IC50 (VIM-1; [15]): 15 nM; IC50 (IMP-1; [14]): 1.05 nM"
"NS(=O)(=O)c1c(C(F)(F)F)ccc(C2CCN(C3CCNCC3)CC2)c1-c1nnn[nH]1 [Example 835, 3-[1-(4-piperidyl)-4-piperidyl]-2-(1H-tetrazol-5-yl)-6-(trifluoromethyl)benzenesulfonamide]",–,–,–,–,–,–,–,–,–,–,"Serratia marcescens MITC95 [1, 11]: 6.25 µM; Escherichia coli MITC95 [2, 12]: 3.125 µM; Klebsiella pneumoniae MITC95 [3, 13]: 100 µM; IC50 (NDM-1; [14]): 96 nM; IC50 (VIM-1; [15]): 190 nM; IC50 (IMP-1; [14]): 232 nM"
"NC1CC(N[C@H]2CC[C@H](c3ccc(C(F)(F)F)c(S(N)(=O)=O)c3-c3nnn[nH]3)CC2)C1 (stereo partly drawn) [Example 702, 3-{4-[(3-aminocyclobutyl)amino]cyclohexyl}-2-(1H-tetrazol-5-yl)-6-(trifluoromethyl)benzene sulfonamide]",–,–,–,–,–,3.125,0.7813,1.563,4.02,25.2,IC50 (VIM-1; [22]): 2.25 nM
"NS(=O)(=O)Cc1cccc(-c2ccc(C(F)(F)F)c(S(N)(=O)=O)c2-c2nnn[nH]2)c1 [Example 737, 3′-(sulfamoylmethyl)-2-(1H-tetrazol-5-yl)-4-(trifluoromethyl)biphenyl-3-sulfonamide]",–,–,–,–,–,3.125,6.25,25,4.95,3.02,IC50 (VIM-1; [22]): 4.29 nM
"NS(=O)(=O)c1c(C2CC2)ccc(-c2cccc3ncccc23)c1-c1nn[nH]n1 [Example 529, 6-Cyclopropyl-3-(quinolin-5-yl)-2-(2H-tetrazol-5-yl)benzenesulfonamide]",–,–,–,–,–,0.7813,3.906,9.375,2.2,6.3,IC50 (VIM-1; [20]): 0.991 nM
"NS(=O)(=O)c1nccc(N2CCC(N3CCOCC3)CC2)c1-c1nnn[nH]1 [Example 239, 4-(4-morpholin-4-ylpiperidin-1-yl)-3-(1H-tetrazol-5-yl)pyridine-2-sulfonamide]",–,–,–,–,–,–,–,–,–,–,Serratia marcescens expressing IMP-1 (CL5741) MITC95 [1]: 50 µM; Escherichia coli expressing NDM-1 (CLB 30016) MITC95 [2]: 1.563 µM; Klebsiella pneumoniae expressing VIM-1 (IHMA 599644) MITC95 [3]: 50 µM; IC50 (NDM-1; [14]): 383 nM; IC50 (VIM-1; [15]): 945 nM; IC50 (IMP-1; [14]): 3710 nM
"C[N+]1(C)CCC(c2ccc(-c3ccc(C(F)(F)F)c(S(N)(=O)=O)c3-c3nn[nH]n3)cc2)C1 (stereo not drawn) [Example 444, 1,1-dimethyl-3-(3′-sulfamoyl-2′-(2H-tetrazol-5-yl)-4′-(trifluoromethyl)-[1,1′-biphenyl]-4-yl)pyrrolidin-1-ium]",0.3906,2.344,4.688,2.5,3.27,–,–,–,–,–,IC50 (VIM-1; [10]): 1.35 nM
"NS(=O)(=O)c1cccc(-c2ccc(CNCCc3nc[nH]n3)cc2)c1-c1nnn[nH]1 [Example 338, 4′-(((2-(1H-1,2,4-triazol-3-yl)ethyl)amino)methyl)-2-(1H-tetrazol-5-yl)-[1,1′-biphenyl]-3-sulfonamide]",3.125,0.5859,25,4.53,75.4,–,–,–,–,–,IC50 (VIM-1; [8]): 152 nM
"NS(=O)(=O)c1c(C(F)(F)F)ccc(-c2cccc3c2CNC3=O)c1-c1nn[nH]n1 [Example 525, 3-(1-Oxoisoindolin-4-yl)-2-(2H-tetrazol-5-yl)-6-(trifluoromethyl)benzenesulfonamide]",–,–,–,–,–,12.5,3.125,4.688,0.541,6.85,IC50 (VIM-1; [20]): 0.0897 nM
